{
  "source": "paper PMC12775124",
  "about": "“CUL4A-DDB1-DCAF10 is an N-recognin for N-terminally acetylated Src kinases” (Nature Communications, 2026)",
  "key": {"[1]": {"system": "DLD-1 Flp-In T-REx and Lyn KO cells", "assay": "Level of Lyn / Lyn-GFP variants after NMT1/2 and DCAF10 siRNA, Western blot", "type": "cell-based, human", "description": "To further investigate the role of the Nt-amino acid and its modification in DCAF10 recognition and DCAF10-dependent ubiquitination, we used the CRISPR/Cas9 technique to knock out Lyn in DLD-1 cell lines with T-REx Flp-In background (DLD-1 Lyn KO Flp-In T-REx) (Supplementary Fig. 7a–c). We then integrated Lyn^WT-GFP and two Nt-mutants (Lyn^G2A-GFP and Lyn^G2P-GFP) under a doxycycline-inducible promoter into the Flp-In cassette. Alanine (G2A) is expected to be efficiently acetylated by NatA, generating an Nt-acetylated Lyn mutant. Conversely, the proline (G2P) mutant, is expected not to be acetylated and may retain a free N-terminus[3],[36],[37]. Doxycycline-induced expression of Lyn^WT-GFP, Lyn^G2A-GFP, and Lyn^G2P-GFP was confirmed by Western blot, MS, and fluorescence microscopy (Supplementary Figs. 7d, e; 8a and Supplementary Data 6). While all constructs were ~2–5-fold higher expressed than endogenous Lyn, G2A and G2P were further elevated relative to WT, which may reflect increased stability when Nt-Gly/acetylation is altered (Supplementary Fig. 7e). […] Lyn^WT-GFP mirrored the behavior of endogenous Lyn under NMT1/2 siRNA treatment. Lyn levels decreased with NMT1/2 KD, but were rescued when siRNAs targeting both NMT1/2 and DCAF10 were applied (Fig. 6a, b). […] The weaker reduction of Lyn^WT-GFP may result from Lyn overexpression and the limiting availability of DCAF10.\n(§1) Fig. 6 N-terminal glycine mutation abolishes DCAF10-dependent stability and ubiquitination. a DLD-1 Flp-In T-REx cells and Lyn KO cells expressing Lyn^WT-GFP, Lyn^G2A-GFP, or Lyn^G2P-GFP were induced for 24 h with 100 ng/mL doxycycline. Cells were treated with NMT1/2 siRNA, DCAF10 siRNA, or both (or left untreated) for 72 h. Representative WBs are shown. Filled circles represent siRNA treatment, empty circles untreated. b WB quantifications of Lyn levels normalized to vinculin. Purple: untreated with NMT1/2 siRNA; blue: treated with NMT1/2 siRNA. Mean ± s.d. with individual data points are shown (n = 3 independent biological replicates). c Schematic of ubiquitination experiments. Created in BioRender. […] Lysates have been treated with NMT1/2 RNAi for 72 h. i Quantification of in vitro ubiquitination assays. Mean ± s.d. with individual data points are shown (n = 3 independent ubiquitination assays). Volcano plots of Lyn-GFP^WT binding partners: j NMT1/2 siRNA ± doxycycline (Dox); k Control ± doxycycline; l NMT1/2 siRNA vs. control both with doxycycline. The −log10 adjusted p-value (two-sided Student’s t test with permutation-based multiple-testing correction; y-axis) is plotted against the log2 fold change (x-axis). Threshold for significance: −log10 p-value ≥ 1.3 (p ≤ 0.05), log2 fold change ≤ −1 or ≥ 1. DCAF10 and Lyn-GFP are marked in green, significant binding partners in purple and in blue, respectively. Source data are provided as a Source data file.\nDLD-1 Lyn knockout (KO) Flp-In T-REx cells were generated by CRISPR/Cas9 electroporation using two guide RNAs targeting the LYN locus. Editing and clone validation were confirmed by genomic sequencing, Western blotting, and MS[51]. Stable cell lines expressing doxycycline-inducible Lyn-GFP (WT, G2A, or G2P) were established by FRT/Flp-mediated recombination and validated by antibiotic selection, Western blotting, and fluorescence microscopy. Detailed protocols are provided in the Supplementary Methods and Tables.\n461 electroporated using the CM137 program. Following electroporation, the cells were kept […]"}, "[2]": {"system": "DLD-1 Lyn KO Flp-In T-REx cells", "assay": "Direct ubiquitin blot of Lyn-GFP immunoprecipitates", "type": "cell-based, human", "conditions": "anti-GFP IP, anti-Ub blot, n = 3", "experimental": "as §1, with “Threshold for significance: −log10 p-value ≥ 1.3 (p ≤ 0.05), log2 fold change ≤ −1 or ≥ 1. DCAF10 and Lyn-GFP are marked in green, significant binding partners in purple and in blue, respectively. Source data are provided as a Source data file.” left out\nWe next assessed the role of the Lyn Nt-residue for ubiquitination by performing two complementary experimental set-ups (Fig. 6c). […]"}},
  "data": [
    {"substance": "Lyn^WT-GFP: doxycycline-inducible C-terminally GFP-fused Lyn in DLD-1 Lyn KO cells", "values": [
      {"measurement": "Level decrease following NMT1/2 KD", "setting": "[1]; DLD-1, 72 h NMT1/2 siRNA, 24 h doxycycline 100 ng/mL, WB/vinculin, average, n = 3", "result": 21, "unit": "%"},
      {"measurement": "Dependency on NMT1/2 and DCAF10 (in words)", "setting": "[1]; DLD-1, 72 h siRNA", "result": "remained dependent on NMT1/2 and DCAF10"},
      {"measurement": "Level increase upon combined NMT1/2 and DCAF10 KD", "setting": "[1]; DLD-1, 72 h siRNA, WB/vinculin, n = 3", "result": 41.7, "unit": "%"},
      {"measurement": "Ubiquitination in cells (in words)", "setting": "[2]", "result": "ubiquitinated under both conditions, with a stronger signal in controls"}
    ]}
  ]
}
